The text below walks through data of ChEMBL document CHEMBL1150103, “Curacins B and C, New Antimitotic Natural Products from the Marine Cyanobacterium Lyngbya majuscula” (J Nat Prod, 1995).

Data set [1] in a line: Toxicity in brine shrimp. The data set is classed as organism-based. The settings on record: artemia, in vivo; read-out: LD50 (the source's name).
Another data set concerns CA46. Description: Cytotoxicity against human CA46 cells. The data set is classed as functional, cell-based.
The subject of the next data set is L1210. Description: Cytotoxicity against mouse L1210 cells. The format is functional, cell-based.
Data set [2] in a line: Inhibition of tubulin polymerization.
The nature of data set [3]: Displacement of [3H]colchicine from tubulin. The settings on record: concentration not given here. For orientation: In a radioligand displacement assay an active substance lowers the binding of a labelled ligand.

For the molecule `C=CC[C@@H](CC/C(C)=C/C=C\CC/C=C\[C@@H]1CSC([C@@H]2C[C@@H]2C)=N1)OC` [CURACIN B], the LC50 in data set [1] worked out at 38 nM. The Activity result with CA46 and with L1210 was “Toxic” each time.
Turning to `C=CC[C@@H](CC/C(C)=C/C=C/CC/C=C\[C@@H]1CSC([C@@H]2C[C@@H]2C)=N1)OC` [CURACIN A], in data set [2], the IC50 was found to be 1400 nM. In addition, in data set [1], the LC50 was determined as 8 nM. In data set [3], this molecule had an inhibition of 96%.
Regarding `C=CC[C@@H](CC/C(C)=C\C=C\CC/C=C\[C@@H]1CSC([C@@H]2C[C@@H]2C)=N1)OC` [CURACIN C], the LC50 in data set [1] was 54 nM. Besides, the Activity result in the data set on CA46 and in the data set with L1210 was “Toxic” throughout.

As a reminder, the IC50 is the midpoint of a concentration-inhibition curve. Read a low IC50 as higher potency. As a reminder, the inhibition is the relative decrease from the control value, in per cent. Low readings indicate little suppression, high ones strong suppression.
